Results on 34 compounds are retold here after ChEMBL document CHEMBL1141237, “Synthesis and activity of N-acyl azacyclic urea HIV-1 protease inhibitors with high potency against multiple drug resistant viral strains” (Bioorg Med Chem Lett, 2005).

Assay [1] deals with Human immunodeficiency virus 1. Nature of the assay: Antiviral activity against HIV1 in the absence of human serum. The format is functional, organism-based.
The target of assay [2] is Human immunodeficiency virus type 1 protease (Human immunodeficiency virus 1, UniProt Q72874). Put plainly: Inhibitory activity against HIV1 protease.
Assay [3] concerns Human immunodeficiency virus 1. Put plainly: Antiviral activity against HIV1 in the presence of 50% human serum. The format is functional, organism-based.
In assay [4] the test system is Human immunodeficiency virus. Put plainly: Antiviral activity against indinavir resistant HIV IND-R mutant strain. The assay is classed as functional, organism-based. The settings on record: Human immunodeficiency virus 1, IND-R.
Assay [5] deals with Human immunodeficiency virus. Put plainly: Antiviral activity against Lopinavir resistant HIV A17 mutant strain. The assay is classed as functional, organism-based. As to conditions: Human immunodeficiency virus 1, A17.
For assay [6], the target named is Human immunodeficiency virus type 1 protease (Human immunodeficiency virus 1) (UniProt Q72874). Put plainly: Inhibitory activity against HIV1 protease at 0.5 uM.
For assay [7] the target is unchanged. Put plainly: Inhibitory activity against HIV1 protease at 1 uM.

Where only a bound is given, the exact number is not on record here.

As to `COc1cc(CN2C(=O)N(Cc3ccc(O)c(OC)c3)N(C(=O)CCc3ccncc3)C[C@@H](O)[C@H]2Cc2ccccc2)ccc1O`, the EC50 was determined as 212 nM in assay [1] and 546 nM in assay [3]. Half-maximal inhibition in assay [2] (IC50) required 1.2 nM.

Turning to `COc1cc(CN2C(=O)N(Cc3ccc(O)c(OC)c3)N(C(=O)CCc3ccc4c(c3)OCO4)C[C@@H](O)[C@H]2Cc2ccccc2)ccc1O`, the EC50 came out at 4 nM in assay [1], 54 nM in assay [4], 65 nM in assay [5] and 56 nM in assay [3]. Also, the inhibition in assay [6] worked out at 73%.

In the case of `CC(C)CC(=O)N1C[C@@H](O)[C@@H](Cc2ccccc2)N(Cc2ccc(O)cc2)C(=O)N1Cc1ccc(O)cc1`, the EC50 in assay [1] was determined as 30 nM; in assay [4] it was 171 nM; in assay [5] it was 312 nM. In addition, in assay [6], the inhibition was determined as 65%.

Regarding `N/C(=N/O)c1cccc(CN2C(=O)N(Cc3ccccc3)N(C(=O)CCc3ccccc3)C[C@@H](O)[C@H]2Cc2ccccc2)c1`, the 50% effective concentration (EC50) in assay [1] was found to be 45 nM; in assay [5], 2020 nM. In addition, the inhibition in assay [6] is 73%.

Regarding `COc1cc(CN2C(=O)N(Cc3ccc(O)c(OC)c3)N(C(=O)CCCN3CCOCC3)C[C@@H](O)[C@H]2Cc2ccccc2)ccc1O`, the EC50 worked out at 308 nM in assay [1] and 576 nM in assay [3]. The compound further showed an IC50 in assay [2] of 3.8 nM.

In the case of `COc1cc(CN2C(=O)N(Cc3ccc(O)c(OC)c3)N(C(=O)COc3ccccc3)C[C@@H](O)[C@H]2Cc2ccccc2)ccc1O`, the EC50 in assay [1] was 929 nM; in assay [3] it was 5150 nM. Moreover, the inhibition in assay [6] amounted to 53%.

For the compound `O=C(CCc1ccccc1)N1C[C@@H](O)[C@@H](Cc2ccccc2)N(Cc2ccccc2)C(=O)N1Cc1ccc2[nH]ncc2c1`, the EC50 turned out to be 45 nM in assay [1], 821 nM in assay [4] and 1070 nM in assay [5]. The compound also yielded an inhibition in assay [6] of 66%.

Take `COc1cc(CN2C(=O)N(Cc3ccc(O)c(OC)c3)N(C(=O)CN3CCNCC3)C[C@@H](O)[C@H]2Cc2ccccc2)ccc1O`: the EC50 was determined as 1490 nM in assay [1] and 3220 nM in assay [3]. The IC50 in assay [2] came to 6.1 nM.

Take `COc1cc(CN2C(=O)N(Cc3ccc(O)c(OC)c3)N(C(=O)CCc3ccoc3)C[C@@H](O)[C@H]2Cc2ccccc2)ccc1O`: the EC50 in assay [1] stood at 9 nM; in assay [4], 227 nM; in assay [5] it was 562 nM; in assay [3] it was 18 nM. Further, the inhibition in assay [6] amounted to 68%.

`CC(C)c1nc(CN(C)C(=O)N[C@H](C(=O)N[C@@H](Cc2ccccc2)C[C@H](O)[C@H](Cc2ccccc2)NC(=O)OCc2cncs2)C(C)C)cs1` [RITONAVIR]: the values for the EC50 in assay [1], in assay [5] and in assay [3] were 22 nM, 1240 nM and 483 nM, respectively.

Consider `COc1cc(CN2C(=O)N(Cc3ccc(O)c(OC)c3)N(C(=O)CCc3ccc(F)cc3)C[C@@H](O)[C@H]2Cc2ccccc2)ccc1O`, for which the EC50 stood at 4 nM in assay [1], 164 nM in assay [4], 189 nM in assay [5] and 28 nM in assay [3]. The same compound showed an inhibition in assay [6] of 67%.

For `Nc1[nH]nc2ccc(CN3C(=O)N(Cc4ccccc4)[C@H](Cc4ccccc4)[C@H](O)CN3C(=O)CCc3ccccc3)cc12`, the EC50 in assay [1] worked out at 50 nM; in assay [4], 102 nM; in assay [5], 897 nM. The inhibition in assay [6] came out at 48%.

In the case of `COc1cc(CN2C(=O)N(Cc3ccc(O)c(OC)c3)N(C(=O)CN3CCCC3)C[C@@H](O)[C@H]2Cc2ccccc2)ccc1O`, the EC50 in assay [1] turned out to be 572 nM; in assay [3] it was 490 nM. The compound further returned an IC50 in assay [2] of 7.9 nM.

Consider `COc1cc(CN2C(=O)N(Cc3ccc(O)c(OC)c3)N(C(=O)CC3CCCC3)C[C@@H](O)[C@H]2Cc2ccccc2)ccc1O`, for which the EC50 amounted to 3 nM in assay [1], 132 nM in assay [4], 367 nM in assay [5] and 60 nM in assay [3]. For the same compound, the inhibition in assay [6] turned out to be 66%.

`COc1ccc(CCC(=O)N2C[C@@H](O)[C@@H](Cc3ccccc3)N(Cc3ccc(O)c(OC)c3)C(=O)N2Cc2ccc(O)c(OC)c2)cc1`: the EC50 in assay [1] is 6 nM; in assay [4] it was 88 nM; in assay [5], 133 nM; in assay [3], 48 nM. In addition, the inhibition in assay [6] worked out at 67%.

Take `COc1cc(CN2C(=O)N(Cc3ccc(N)c(OC)c3)N(C(=O)CCc3ccccc3)C[C@@H](O)[C@H]2Cc2ccccc2)ccc1N`: the EC50 in assay [1] came out at 53 nM; in assay [4], 504 nM; in assay [5], 464 nM. The same compound had an inhibition in assay [6] of 88%.

Regarding `COc1cc(CN2C(=O)N(Cc3ccc(O)c(OC)c3)N(C(=O)CCc3ccc(O)cc3)C[C@@H](O)[C@H]2Cc2ccccc2)ccc1O`, the values for the EC50 in assay [1] and in assay [3] were 61 nM and 165 nM, respectively. Further, the inhibition in assay [6] stood at 73%.

For the compound `COc1cc(CN2C(=O)N(Cc3ccc(O)c(OC)c3)N(C(=O)CCc3ccco3)C[C@@H](O)[C@H]2Cc2ccccc2)ccc1O`, the EC50 in assay [1] worked out at 3 nM; in assay [4] it was 81 nM; in assay [5], 455 nM; in assay [3], 16 nM. The compound also had an inhibition in assay [6] of 73%.

Turning to `Cc1cccc(C)c1OCC(=O)N[C@@H](Cc1ccccc1)[C@@H](O)C[C@H](Cc1ccccc1)NC(=O)[C@H](C(C)C)N1CCCNC1=O` [LOPINAVIR], the EC50 in assay [1] was 16 nM; in assay [4] it was 385 nM; in assay [5] it was 1060 nM; in assay [3], 67 nM.

`COc1cc(CN2C(=O)N(Cc3ccc(O)c(OC)c3)N(C(=O)CCCC3CCCO3)C[C@@H](O)[C@H]2Cc2ccccc2)ccc1O` (some centres not stated): the EC50 in assay [1] came out at 9 nM; in assay [3] it was 77 nM. Besides, the inhibition in assay [6] turned out to be 76%.

For `COc1cc(CN2C(=O)N(Cc3ccc(O)c(OC)c3)N(C(=O)CCc3cccnc3)C[C@@H](O)[C@H]2Cc2ccccc2)ccc1O`, the figures for the EC50 in assay [1] and in assay [3] were 54 nM and 353 nM, respectively. The inhibition in assay [6] was determined as 58%.

`COc1cccc(CCC(=O)N2C[C@@H](O)[C@@H](Cc3ccccc3)N(Cc3ccc(O)c(OC)c3)C(=O)N2Cc2ccc(O)c(OC)c2)c1`: the EC50 in assay [1] stood at 4 nM; in assay [3], 62 nM. This compound registered an inhibition in assay [6] of 67%.

Turning to `Nc1cccc(CN2C(=O)N(Cc3ccc4[nH]ncc4c3)N(C(=O)CCc3ccccc3)C[C@@H](O)[C@H]2Cc2ccccc2)c1`, the EC50 in assay [1] turned out to be 13 nM; in assay [4] it was 23 nM; in assay [5] it was 98 nM. In assay [6], this compound had an inhibition of 74%.

With `N/C(=N/O)c1cccc(CN2C(=O)N(Cc3ccc4[nH]ncc4c3)N(C(=O)CCc3ccccc3)C[C@@H](O)[C@H]2Cc2ccccc2)c1`, the 50% effective concentration (EC50) in assay [1] was 74 nM; in assay [4], 58 nM; in assay [5] it was 84 nM. Moreover, the inhibition in assay [6] was found to be 90%.

With `COc1cc(CN2C(=O)N(Cc3ccc(O)c(OC)c3)N(C(=O)CCCc3ccccc3)C[C@@H](O)[C@H]2Cc2ccccc2)ccc1O`, the EC50 in assay [1] was determined as 5 nM; in assay [3], 27 nM. In addition, in assay [6], the inhibition came out at 75%.

In the case of `COc1cc(CN2C(=O)N(Cc3ccc(O)c(OC)c3)N(C(=O)CC(C)C)C[C@@H](O)[C@H]2Cc2ccccc2)ccc1O`, the EC50 in assay [1] turned out to be 9 nM; in assay [4], 94 nM; in assay [5] it was 586 nM; in assay [3], 27 nM. In addition, in assay [6], the inhibition was found to be 73%.

With `COc1cc(CN2C(=O)N(Cc3ccc(O)c(OC)c3)N(C(=O)CCCc3cccs3)C[C@@H](O)[C@H]2Cc2ccccc2)ccc1O`, the EC50 in assay [1] was determined as 4 nM; in assay [3], 56 nM. Moreover, the inhibition in assay [6] turned out to be 64%.

In assay [7], `CC(C)CC(=O)N1C[C@@H](O)[C@@H](Cc2ccccc2)N(Cc2ccc(N)cc2)C(=O)N1Cc1ccc(N)cc1` displayed an inhibition of 56%. The compound further returned an EC50 in assay [1] of 150 nM.

In the case of `COc1cc(CN2C(=O)N(Cc3ccc(O)c(OC)c3)N(C(=O)CCCCN3CCOCC3)C[C@@H](O)[C@H]2Cc2ccccc2)ccc1O`, the EC50 in assay [1] was 86 nM; in assay [4], 1040 nM; in assay [5], above 10000 nM; in assay [3], 480 nM. The same compound returned an IC50 in assay [2] of 2.1 nM.

On to `COc1cc(CN2C(=O)N(Cc3ccc(O)c(OC)c3)N(C(=O)CCc3ccc(OC)c(OC)c3)C[C@@H](O)[C@H]2Cc2ccccc2)ccc1O`, for which the EC50 in assay [1] stood at 15 nM; in assay [3], 47 nM. Moreover, in assay [6], the inhibition was determined as 72%.

Take `O=C(CCc1ccccc1)N1C[C@@H](O)[C@@H](Cc2ccccc2)N(Cc2ccc(O)cc2)C(=O)N1Cc1ccc(O)cc1`: the EC50 in assay [1] was determined as 17 nM; in assay [4] it was 14 nM; in assay [5] it was 192 nM. The compound also yielded an inhibition in assay [6] of 76%.

Regarding `COc1cc(CN2C(=O)N(Cc3ccc(O)c(OC)c3)N(Cc3ccccc3)C[C@@H](O)[C@H]2Cc2ccccc2)ccc1O`, the values for the EC50 in assay [1] and in assay [3] were 4 nM and 29 nM, respectively. Further, in assay [6], the inhibition turned out to be 81%.

Regarding `CC(C)CC(=O)N1C[C@@H](O)[C@@H](Cc2ccccc2)N(Cc2cccc(N)c2)C(=O)N1Cc1cccc(N)c1`, the figures for the EC50 in assay [1] and in assay [5] were 37 nM and 2070 nM, respectively. Besides, in assay [6], the inhibition was 66%.

With `COc1cc(CN2C(=O)N(Cc3ccc(O)c(OC)c3)N(C(=O)CCc3ccccc3)C[C@@H](O)[C@H]2Cc2ccccc2)ccc1O`, the EC50 worked out at 4 nM in assay [1], 49 nM in assay [4], 102 nM in assay [5] and 28 nM in assay [3]. Moreover, the inhibition in assay [6] was 55%.

The EC50 is the midpoint of the concentration-response curve. The term IC50 denotes the concentration at which inhibition is half-maximal. The low end stands for inhibition by little substance, the high end for a need for much substance. A word on the inhibition: it is the drop in the measured response relative to a control, in per cent. A high value points to a strong effect.
